Experimental data published in patent US7892350B2, “Sacrificial agents for fly ash concrete” (Boral Material Technologies Inc., priority 2003, dated 2011).

Experiment: Second sacrificial agent testing protocol: paste air measurements with DDBS (0.0125 wt %) and rating; as to Overall performance rating (second protocol rating): key: 0: Fail; 1: Poor; 2: Good; 3: Preferred; 4: Most preferred; as to SA Rating (0-4): key: 0: Fail; 1: Poor; 2: Good; 3: Preferred; 4: Most preferred
Conditions: not given
Experimental: The second sacrificial agents evaluation protocol has been designed to assess the relative potential value of candidate sacrificial agents with a maximum of five paste air measurements.
The first two measurements (of entrained air) are carried out with a standard AEA in a portland cement paste and in a FA:cement paste; these two tests provide reference values which can be used for the relative assessment of a series of sacrificial agents. The other three paste air measurements pertain to the properties and effectiveness of the sacrificial agents.
1. Measurement of the air entrained by a standard air-entraining admixture in a cement paste of fixed composition and fluidity; the latter is a reference system which provides ‘reference’ air entrainment values (‘A’ in FIG. 8).
2. […] The difference between ‘B’ and ‘A’ in FIG. 8 is the reduction in air entrainment due to the presence of the fly ash; this is illustrated as ‘C’ in FIG. 8.
In the present SA testing and evaluation protocol, the fly ash selected should remain the same for the entire set of additives tested, in order to provide reliable relative performance ranking. For the present series of test, the Fly Ash selected was the one identified as B1 in Table 1 below; the physico-chemical properties of this fly ash are reported in Table 1.
In testing for the relative performance of the sacrificial agent, the sacrificial agent dosage was chosen in the range 0-0.1 wt %, which corresponds to typical dosage values observed in paste, mortar and concrete tests reported in Tables 2, 3 and 4 and Tables 7 to 34.
3. Measurement of the air entrainment of the SA, by itself, in a cement-only paste at a dosage of 0.1 wt %; this is illustrated as ‘D’ in FIG. 8.
4. Measurement of the air entrained by DDBS in the FA-cement paste comprising 0.05% wt SA, under the same conditions as described in 2 above. The air entrainment value observed in this system, compared to that observed in the absence of the SA, yields the air recovery due to the SA, and is illustrated schematically as ‘E’ in FIG. 8.
5. Same as in 4 above, but with a higher SA concentration at 0.1 wt %; the air entrainment observed, again compared to the value observed in the absence of the SA, yields a second value of air recovery by the SA and is illustrated as ‘F’ in FIG. 8.
For the relative performance rating of the group of products chosen as potential SA and listed in Table 36, the following rating scheme (Tables A and B) was adopted (referring to FIG. 8 and quantities defined therein):
1: Chemical name of compound tested as potential sacrificial agent • Col. 2: Level of air entrainment by the candidate sacrificial agent, at a concentration of 0.1 wt %, in a Portland cement paste ([…]) • Col. […] 5: Sacrificial agent overall rating index (described below) • Col. 6: Hydrophilic-Lipophilic Balance (HLB) values of candidate sacrificial agent (source and significance of HLB data given below) • Col. 7: Logarithm of the Oil(octanol)/water partition coefficient (Kow) of the candidate sacrificial agents (source and significance of data given below).

| Molecule | B1 + 0.0125% DDBS + 0.05% SA (air entrainment) | B1 + 0.0125% DDBS + 0.1% SA (air entrainment) | Overall performance rating (second protocol rating) | PCA + 0.1% SA (level of air entrainment by the candidate sacrificial agent) | SA Rating (0-4) |
| --- | --- | --- | --- | --- | --- |
| CCCCO [1-Butanol] | 5.9 | 6.5 | 4 | 1.2 | 4 |
| CCN1CCCC1=O [1-Ethyl-2-Pyrrolidinone] |  |  | 3 |  |  |
| CCCCCO [1-Pentanol] |  |  | 3 |  |  |
| O=S(=O)([O-])c1ccc2cc(S(=O)(=O)[O-])ccc2c1.[Na+].[Na+] [2,6-naphthalene disulfonate Na] | 2.3 | 3.0 |  | 0.0 | 0 |
| CCC(C)O (centres unmarked) [2-Butanol] | 6.0 | 6.6 | 4 | 1.4 | 4 |
| CCC(C)=O [2-Butanone] |  |  | 1 |  |  |
| CCCC=O [Butyraldehyde] |  |  | 2 |  |  |

Same assay, conditions: B1 FA/cement paste; 0.0125 wt % DDBS; 0.05 wt % SA

| Molecule | B1 + 0.0125% DDBS + 0.05% SA (air entrainment) |
| --- | --- |
| Nc1c(O)cc(S(=O)(=O)[O-])c2ccccc12.[Na+] | 3.1 |
| 1-Octanol | 2.1 |
| CN1CCCC1=O [1-Methyl-2-Pyrrolidinone] | 3.6 |
| NCCOCCO [2-(2-Aminoethoxy)ethanol] | 3.1 |
| O=C(O)c1ccc2ccccc2c1 [2-Naphthoic acid] | 3.2 |
| CCC(O)CC [3-Pentanol] | 6.1 |
| CCc1ccc(S(=O)(=O)O)cc1 [4-Ethyl benzene sulfonic acid] | 4.8 |
| O=S(=O)(O)c1ccc(O)cc1 [4-Hydroxybenzenesulfonic acid] | 2.1 |
| OCc1ccccc1 [Benzyl alcohol] | 4.1 |
| C[N+](C)(C)Cc1ccccc1.[OH-] [Benzyltrimethyl ammonium hydroxide] | 2.3 |

Same assay, conditions: B1 FA/cement paste; 0.0125 wt % DDBS; 0.10 wt % SA

| Molecule | B1 + 0.0125% DDBS + 0.1% SA (air entrainment) |
| --- | --- |
| Nc1c(O)cc(S(=O)(=O)[O-])c2ccccc12.[Na+] | 2.9 |
| 1-Octanol | 1.4 |
| CN1CCCC1=O [1-Methyl-2-Pyrrolidinone] | 3.8 |
| NCCOCCO [2-(2-Aminoethoxy)ethanol] | 3.9 |
| O=C(O)c1ccc2ccccc2c1 [2-Naphthoic acid] | 4.2 |
| CCC(O)CC [3-Pentanol] | 6.3 |
| CCc1ccc(S(=O)(=O)O)cc1 [4-Ethyl benzene sulfonic acid] | 6.2 |
| O=S(=O)(O)c1ccc(O)cc1 [4-Hydroxybenzenesulfonic acid] | 2.0 |
| OCc1ccccc1 [Benzyl alcohol] | 5.4 |
| C[N+](C)(C)Cc1ccccc1.[OH-] [Benzyltrimethyl ammonium hydroxide] | 3.0 |

Same assay, conditions: B1 FA/cement paste; […]

| Molecule | B1 + 0.0125% DDBS + 0.05% SA (air entrainment) | B1 + 0.0125% DDBS + 0.1% SA (air entrainment) |
| --- | --- | --- |
| Cl.NCC(N)C(=O)O (centres unmarked) | 1.7 | 1.9 |
| O=S(=O)([O-])c1cc(O)c2c(O)cc(S(=O)(=O)[O-])cc2c1.[Na+].[Na+] | 2.0 | 2.5 |
| CCCCCCCCCCO [1-Decanol] | 2.1 | 1.7 |
| CCN1CCCC1=O [1-Ethyl-2-Pyrrolidinone] | 4.3 | 5.6 |
| CCCCCO [1-Pentanol] | 4.9 | 4.7 |
| CC(O)C(C)O (centres unmarked) [2,3-Butanediol] | 3.6 | 3.7 |
| O=C(O)c1cc(O)ccc1O [2,5-Dihydroxybenzoic acid] | 1.9 | 1.6 |
| CCC(C)=O [2-Butanone (Methyl ethyl ketone)] | 3.7 | 4.1 |
| O=C(O)c1ccc(O)cc1 [4-Hydroxybenzoic acid] | 2.1 | 2.4 |
| CC#N [Acetonitrile] | 2.3 | 2.5 |
| O=C(O)CCCCC(=O)O [Adipic acid] | 1.9 | 2.2 |
| CC1=CCC2CC1C2(C)C (stereo not drawn) [Alpha-Pinene] | 2.4 | 2.9 |
| CCCC=O [Butyraldehyde] | 4.0 | 4.0 |

Same assay, conditions: Portland cement paste (PCA); 0.1 wt % SA, no DDBS

| Molecule | PCA + 0.1% SA (level of air entrainment by the candidate sacrificial agent) |
| --- | --- |
| C[N+](C)(C)Cc1ccccc1.[OH-] [Benzyltrimethyl ammonium hydroxide] | 1.0 |

Same assay, conditions: Portland cement paste (PCA); […]

| Molecule | PCA + 0.1% SA (level of air entrainment by the candidate sacrificial agent) |
| --- | --- |
| Cl.NCC(N)C(=O)O (centres unmarked) | 0.3 |
| Nc1c(O)cc(S(=O)(=O)[O-])c2ccccc12.[Na+] | 0.4 |
| O=S(=O)([O-])c1cc(O)c2c(O)cc(S(=O)(=O)[O-])cc2c1.[Na+].[Na+] | 0.0 |
| 1-Octanol | 0.0 |
| CCCCCCCCCCO [1-Decanol] | 0.0 |
| CCN1CCCC1=O [1-Ethyl-2-Pyrrolidinone] | 2.5 |
| CN1CCCC1=O [1-Methyl-2-Pyrrolidinone] | 1.9 |
| CCCCCO [1-Pentanol] | 0.9 |
| CC(O)C(C)O (centres unmarked) [2,3-Butanediol] | 1.2 |
| O=C(O)c1cc(O)ccc1O [2,5-Dihydroxybenzoic acid] | 0.0 |
| NCCOCCO [2-(2-Aminoethoxy)ethanol] | 0.5 |
| CCC(C)=O [2-Butanone (Methyl ethyl ketone)] | 0.3 |
| O=C(O)c1ccc2ccccc2c1 [2-Naphthoic acid] | 1.3 |
| CCC(O)CC [3-Pentanol] | 0.5 |
| CCc1ccc(S(=O)(=O)O)cc1 [4-Ethyl benzene sulfonic acid] | 1.3 |
| O=S(=O)(O)c1ccc(O)cc1 [4-Hydroxybenzenesulfonic acid] | 0.1 |
| O=C(O)c1ccc(O)cc1 [4-Hydroxybenzoic acid] | 1.0 |
| CC#N [Acetonitrile] | 0.5 |
| O=C(O)CCCCC(=O)O [Adipic acid] | 0.2 |
| CC1=CCC2CC1C2(C)C (stereo not drawn) [Alpha-Pinene] | 0.4 |
| OCc1ccccc1 [Benzyl alcohol] | 0.6 |
| CCCC=O [Butyraldehyde] | 0.0 |

Same assay, conditions: sacrificial agent overall rating index

| Molecule | SA Rating (0-4) |
| --- | --- |
| Cl.NCC(N)C(=O)O (centres unmarked) | 0 |
| Nc1c(O)cc(S(=O)(=O)[O-])c2ccccc12.[Na+] | 0 |
| O=S(=O)([O-])c1cc(O)c2c(O)cc(S(=O)(=O)[O-])cc2c1.[Na+].[Na+] | 0 |
| 1-Octanol | 0 |
| CCCCCCCCCCO [1-Decanol] | 0 |
| CCN1CCCC1=O [1-Ethyl-2-Pyrrolidinone] | 3 |
| CN1CCCC1=O [1-Methyl-2-Pyrrolidinone] | 0 |
| CCCCCO [1-Pentanol] | 3 |
| CC(O)C(C)O (centres unmarked) [2,3-Butanediol] | 0 |
| O=C(O)c1cc(O)ccc1O [2,5-Dihydroxybenzoic acid] | 0 |
| NCCOCCO [2-(2-Aminoethoxy)ethanol] | 1 |
| CCC(C)=O [2-Butanone (Methyl ethyl ketone)] | 1 |
| O=C(O)c1ccc2ccccc2c1 [2-Naphthoic acid] | 1 |
| CCC(O)CC [3-Pentanol] | 4 |
| CCc1ccc(S(=O)(=O)O)cc1 [4-Ethyl benzene sulfonic acid] | 3 |
| O=S(=O)(O)c1ccc(O)cc1 [4-Hydroxybenzenesulfonic acid] | 0 |
| O=C(O)c1ccc(O)cc1 [4-Hydroxybenzoic acid] | 0 |
| CC#N [Acetonitrile] | 0 |
| O=C(O)CCCCC(=O)O [Adipic acid] | 0 |
| CC1=CCC2CC1C2(C)C (stereo not drawn) [Alpha-Pinene] | 0 |
| OCc1ccccc1 [Benzyl alcohol] | 3 |
| C[N+](C)(C)Cc1ccccc1.[OH-] [Benzyltrimethyl ammonium hydroxide] | 0 |
| CCCC=O [Butyraldehyde] | 2 |

Same assay, conditions: sum of ratings of air entrainment recovery by 0.05% and 0.1% SA; DDBS 0.0125 wt %, 50:50 B1 fly ash:cement paste

| Molecule | Overall performance rating (second protocol rating) |
| --- | --- |
| NCCOCCO [2-(2-Aminoethoxy)ethanol] | 1 |
| O=C(O)c1ccc2ccccc2c1 [2-Naphthoic acid] | 1 |
| CCC(O)CC [3-Pentanol] | 4 |
| CCc1ccc(S(=O)(=O)O)cc1 [4-Ethyl benzene sulfonic acid] | 3 |
| Nc1ccccc1 [Aniline] | 2 |
| OCc1ccccc1 [Benzyl alcohol] | 3 |
